Source: US20100292229A1, “TRYPHOSTIN-ANALOGS FOR THE TREATMENT OF CELL PROLIFERATIVE DISEASES” (The Board of Regents of the University of Texas System, priority 2006, published 2010)
Each block holds one compound with its values, some of them ahead of it. Where a SMILES comes first, the peptide text is derived from it. The star is where a group is joined. Cbz = O=C(OCc1ccccc1)*

Legend:
[1] = target: T1, c-myc (Homo sapiens, UniProt P01106); test: c-myc protein immunoblot in MM-1 cells; type: cell-based; conditions: for Effect of inhibitor pretreatment on Degrasyn-mediated c-myc protein reduction: inhibitor 2 h, then 5 μM Degrasyn 2 h
T1 construct: endogenous in cells; host or cells: MM-1 cells
T1 sequence (P01106 16-454 limits assumed): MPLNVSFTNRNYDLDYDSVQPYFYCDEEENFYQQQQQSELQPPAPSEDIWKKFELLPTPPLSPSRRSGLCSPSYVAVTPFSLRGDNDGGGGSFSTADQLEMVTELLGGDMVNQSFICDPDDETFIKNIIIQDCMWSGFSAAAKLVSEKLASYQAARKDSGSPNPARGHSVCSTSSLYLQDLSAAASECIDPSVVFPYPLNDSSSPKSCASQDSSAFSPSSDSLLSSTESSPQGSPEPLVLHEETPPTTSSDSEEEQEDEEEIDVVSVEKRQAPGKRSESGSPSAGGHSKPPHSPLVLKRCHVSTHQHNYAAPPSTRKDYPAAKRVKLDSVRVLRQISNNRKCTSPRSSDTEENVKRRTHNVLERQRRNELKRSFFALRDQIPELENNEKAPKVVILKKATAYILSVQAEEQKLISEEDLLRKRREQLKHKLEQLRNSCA
Description: Top: MM-1 cells were incubated with 5 μM Degrasyn for the interval noted before cell lysates were prepared and subjected to immunoblotting for c-myc and actin as a protein loading control.
Middle: MM-1 cells were treated with the indicated concentration of Degrasyn for 1 h before lysates were immunoblotted for c-myc and actin.
Bottom: MM-1 cells were treated as indicated before extraction of total RNA (TRIzol). RNA was resolved by agarose electrophoresis, transferred to a membrane and hybridized with a c-myc probe to determine the level of c-myc RNA in each sample. The ethidium bromide stained gel was photographed and 28S RNA content was detected as a measure of RNA content in each lane.
MM-1 cells were pretreated with protease/proteosome inhibitors (LLnL; LLnM; E-64d; MG132; PS341; Chloroquine; Ammonium Chloride; Cycloheximide) for 2 h before the addition of 5 μM Degrasyn or vehicle alone (DMSO as indicated) for an additional 2 h. Cell lysates were prepared and equal protein aliquots were subjected to immunoblotting for c-myc, Max (a c-myc binding partner) or actin as a protein loading control.
Pictured: MM-1 cells were treated with biotinylated Degrasyn (Bio-Deg) or Degrasyn (at the indicated concentration) for 1 h before analyzing effects on c-myc as described in FIG. 15.
(§1) Western Blot analysis. Cells were harvested, washed twice in cold 1×PBS and lysed in modified RIPA lysis buffer (150 mM NaCl, 1% NP-40, 0.5% Na-deoxycholate [DOC], 0.1% Na-dodecyl sulfate [SDS], 50 mM Tris-HCl (pH 7.5), 1 mM EDTA, 1 mM NaF, 2 mM Na-vanadate, with protease inhibitors (1 mM PMSF, 1 mM benzamidine, 10 μg/ml aprotinin, 10 μg/ml leupeptin) on ice for 30 min. The lysed cells were centrifuged at 13,000 rpm for 30 min and the supernatant collected. The protein concentration of the cell lysate was determined by the Bradford Protein Assay. Fifty to 60 μg of protein were resolved in a 10% SDS-PAGE, and transferred to a PVDF membrane. Western blotting was performed using specific primary antibodies Peroxidase-conjugated affiniPure anti-Mouse Anti-Rabbit secondary antibodies (Jackson Immunoresearch Laboratories, West Grove, Pa.). The proteins were visualized with ECL Plus reagents (Amersham Biosciences).

[2] = system: K562 cells; test: MTT assay of cell growth and survival, K562 cells; type: cell-based, human; conditions: FIG. 21; anti-tumor activity
Description: (§2) All compounds are tested for purity (HPLC, NMR) and the calculated molecular weight is used to make up a 10 mM stock solution of each compound (in 100% dimethylsulfoxide or 50% dimethylsulfoxide:50% polyethylene glycol 300). Compounds are diluted into cell culture media consisting of RPMI 1640 with 10% fetal bovine serum to a final starting concentration of 10 μM. [Highest final DMSO content=0.1%.]. Tumor cells (20,000 for non-adherent cells; 5,000 for adherent cells) are plated into individual wells of a 96-well culture plate in 0.1 ml of culture media. Diluted compounds are added to individual wells containing pre-plated cells (final volume 0.2 ml) and incubated at 37° C. for 24 to 72 h. Wells receiving vehicle alone acted as a control.
(§3) MTT (viability) assay. MTT reagent (20 μl of 5 mg/ml stock solution, Sigma) is added to the cells and the plates are incubated at 37° C. for another 2 h. Cells are lysed by adding 100 μl of lysis buffer (20% SDS in 50% N,N-dimethylformamide (Sigma) adjusted to pH 4.7 by 80% acetic acid and 1 M HCl such that the final concentration of acetic acid is 2.5% and HCl is 2.5%) into each well and incubated for 6 h. The OD570 of each sample is determined by using a SPECTRA MAX M2 plate reader (Molecular Devices). The OD in control and treated wells is used as an estimate of the effect of compounds on cell growth and survival.
Cell lines. […]

[3] = system: MM-1 cells; test: MTT assay of cell growth and survival, MM-1 cells; type: cell-based
Description: as §2, §3
Cell lines. […] A375 melanoma cells were grown and maintained in the same media. Ba/F3 parental cells were grown in RPMI 1640 containing 10% heat inactivated fetal bovine serum and 2 mM glutamine supplemented with IL-3 (1 ng/ml) while Ba/F3 cells stably expressing Bcr/Abl or the T315I mutant of Bcr/Abl were grown in RPMI 1640 containing 10% heat inactivated fetal bovine serum and 2 mM glutamine in the absence of IL-3. Normal human dermal fibroblasts (NHDF) were obtained from Cambrex (Walkersville, Md.) and grown in specially formulated media (obtained through Cambrex) with 20% fetal calf serum.
IC50 determinations. The anti-tumor activity of certain compounds of the present invention against MM-1 cell lines was investigated and the IC50 values calculated (FIGS. 33A-F). In a typical experiment, MM-1 cell lines were incubated with a range of compound concentrations for 72 h to determine the concentration required to inhibit cell growth or induce apoptosis by 50% (IC50). MTT assays as described above were used to conduct this analysis.

[4] = target: T2, nucleophosmin (NPM) (Homo sapiens, UniProt P06748); test: Affinity recovery of Degrasyn interactive proteins with streptavidin beads; type: binding; conditions: MM-1 or K562 cell lysates
T2 construct: endogenous in cells; host or cells: MM-1 and K562 cell lysates
T2 sequence (P06748 whole entry): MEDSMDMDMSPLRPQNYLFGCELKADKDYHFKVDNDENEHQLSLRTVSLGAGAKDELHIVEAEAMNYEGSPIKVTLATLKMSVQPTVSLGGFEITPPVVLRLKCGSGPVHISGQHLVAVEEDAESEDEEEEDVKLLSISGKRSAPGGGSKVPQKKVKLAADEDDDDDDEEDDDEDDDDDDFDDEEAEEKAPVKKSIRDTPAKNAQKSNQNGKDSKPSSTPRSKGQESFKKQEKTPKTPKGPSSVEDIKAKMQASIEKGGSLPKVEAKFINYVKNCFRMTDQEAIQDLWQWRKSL
Description: Biotinylated-Degrasyn (10 μM) was incubated with lysates from MM-1 cells (10 mg total protein) and interactive proteins were assessed by affinity recovery using Streptavidin-conjugated beads to bind biotinylated-Degrasyn. Free Degrasyn (10 μM) was incubated with biotinylated-Degrasyn in a parallel experiment to assist in identifying specific protein:Degrasyn interactions. Affinity complexes were washed and Streptavidin-Bio-Deg interaction proteins were assessed by disrupting protein complexes with SDS-sample buffer and resolving proteins by SDS-PAGE. The resolved proteins were detected by silver-staining the gel. Protein bands present in the biotinylated-Degrasyn sample that were absent in samples co-incubated with free Degrasyn were identified and cut from the gel. A 38 kDa protein band was prominent in this assessment and was subjected to in gel trypsinization and identification of HPLC resolved tryptic peptides by tandem mass spectroscopy analysis (David Hawke, Department of Molecular Pathology, M.D. Anderson Cancer Center). This analysis identified nucleophosmin (NPM) as a Degrasyn interactive protein.
To further assess the interaction between NPM and Degrasyn, biotinylated-Degrasyn/streptavidin beads were incubated with MM-1 (left) or K562 (right) cell lysates. In parallel, lysates were co-incubated with free Degrasyn to determine the specificity of the interaction with NPM. […]

[5] = system: p70 and p55 tyrosine phosphorylation; test: Phosphotyrosine (4G10) immunoblot in B-cell malignancy cell lines; type: cell-based; conditions: 2 h; MM-1, LP or Mino cells
Description: MM-1 cells were pretreated with Degrasyn (at the concentration indicated) for 2 h before the addition of IL-6 for 15 min (as noted). Total cell lysates were prepared and equal protein aliquots were resolved by SDS-PAGE and immunoblotted for phosphotyrosine (4G10).
MM-1 and LP (lymphoma) cells were treated with Degrasyn (at the concentration indicated) for 2 h before cell lysates were prepared and equal protein aliquots were resolved by SDS-PAGE and immunoblotted for phosphotyrosine (4G10).
MM-1 and Mino (Mantle cell lymphoma) cells were treated with Degrasyns with different levels of anti-tumor efficacy (at the concentration indicated) for 2 h before cell lysates were prepared and equal protein aliquots were resolved by SDS-PAGE and immunoblotted for phosphotyrosine (4G10).
MM-1 cells were treated as indicated before analysis of cellular tyrosine phosphorylation by immunoblotting. Both p70 and p55 were tyrosine phosphorylated after 15 min of Degrasyn treatment which peaks in intensity after 1 h and remains higher than control levels after 4 h. These early changes may underlie or be a marker of Degrasyn activity in B-cell malignancies.
as §1

- c-myc protein levels ([1]; FIG. 21, 1 h): reduced c-myc protein levels
- Interaction with NPM [4]: recovered NPM from cell lysates
Compound: 2-Propenamide, 2-cyano-3-(3-bromo 2-pyridinyl)-N-(2-phenyl-2-ethylene)-1-biotinyl ester-(E) [Bio-Degrasyn]
- IC50 [2]: 5.6 µM
- IC50 ([3]; FIG. 21, anti-tumor activity, read-out: IC50 for MM-1 cells): 3.8 µM
- Reduction of anti-tumor activity by biotinylation ([3]; MM-1 and K562 cells, relative to Degrasyn): ~2 fold

Compound: N#C/C(=C\c1cccc(Br)n1)C(=O)NC(c1ccccc1)C1CC1 (stereo not drawn) [BDT-16]
- Tyrosine phosphorylated protein species (~70 kDa, ~55 kDa) [5]: more potently stimulates tyrosine phosphorylation
- Anti-tumor activity relative to WP1130 ([3]; FIG. 28): greater anti-tumor activity than WP1130

Compound: CC(C)C[C@@H](C=O)NC(=O)[C@H](CC(C)C)NC(=O)[C@H](CC(C)C)NC(=O)OCc1ccccc1 [MG132, reference compound] (Cbz-Leu-Leu-Leu-aldehyde)
- Effect of inhibitor pretreatment on Degrasyn-mediated c-myc protein reduction [1]: block Degrasyn-mediated c-myc protein reduction

Compound: CC(C)C[C@H](NC(=O)[C@H](Cc1ccccc1)NC(=O)c1cnccn1)B(O)O [PS341, reference compound]
- Effect of inhibitor pretreatment on Degrasyn-mediated c-myc protein reduction [1]: block Degrasyn-mediated c-myc protein reduction
